Like-named read-outs stand apart in the source and are kept apart here.
Tests used:
Assay type in all cases: cell-based
K-ras G12V = K-ras G12V (Homo sapiens, UniProt P01116, G12V); assay: G-LISA Ras activation assay, 293H cells transfected with G12V mutant; settings: 1 hour treatment
Method: (§1) 293H cells were seeded in 6-wells at 0.6×10^6 cells per well and transfected next day with 5 μg of Ras wild-type, or G12C, G12D or G12V mutant DNA plasmid vector using transfection reagent Lipofectamine 3000. Next day cells were treated with 3.125-50 μM of Ras compounds for 1 hour. Wild-type transfected cells were subsequently treated with 100 ng/ml EGF for 2 minutes. Cells were washed once in ice-cold PBS, lysed in complete lysis buffer on ice, and processed by G-LISA according to Cytoskeleton protocol.
(§2) In-cell selectivity of the compounds presented herein against a specific K-ras mutant form can also be tested as shown in the following exemplary experiment. 293H cells were seeded in 6-wells and transfected next day with 5 μg of Ras wild-type, or G12C, G12D or G12V mutant DNA plasmid vector. Next day cells were treated with 3.125-50 μM of Ras compounds for 1 hour. Wild-type transfected cells were subsequently treated with 100 ng/ml EGF for 2 minutes. Cells were washed once in ice-cold PBS, lysed in complete lysis buffer on ice, and processed by G-LISA according to Cytoskeleton protocol. FIG. 1 depicts exemplary results.
as §1, with “In still further experiments, the inventors tested selected compounds in a G-LISA assay to compare IC50 values for wild-type and various mutant K-Ras (G12D, G12V) using the following general protocol: 293H” for “293H”

K-Ras wild-type = K-Ras wild-type (Homo sapiens, UniProt P01116); assay: G-LISA Ras activation assay, 293H cells transfected with Ras wild-type, EGF-stimulated; settings: 1 hour treatment, 100 ng/ml EGF
Method: as §1, §2
as §1, with “In still further experiments, the inventors tested selected compounds in a G-LISA assay to compare IC50 values for wild-type and various mutant K-Ras (G12D, G12V) using the following general protocol: 293H” for “293H”

K-ras G12D = K-ras G12D (Homo sapiens, UniProt P01116, G12D); assay: G-LISA Ras activation assay, 293H cells transfected with G12D mutant; settings: for IC50: 1 hour treatment
Method: as §1, §2
as §1, with “In still further experiments, the inventors tested selected compounds in a G-LISA assay to compare IC50 values for wild-type and various mutant K-Ras (G12D, G12V) using the following general protocol: 293H” for “293H”

Sequence of K-ras G12D (P01116 1-188 isoform P01116-2 G12D): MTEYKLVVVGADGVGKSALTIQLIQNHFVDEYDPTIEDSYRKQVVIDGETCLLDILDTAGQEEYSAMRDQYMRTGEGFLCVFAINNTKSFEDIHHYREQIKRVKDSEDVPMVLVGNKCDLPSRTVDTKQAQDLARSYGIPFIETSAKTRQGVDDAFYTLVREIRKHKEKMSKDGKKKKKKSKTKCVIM
Sequence of K-Ras wild-type (P01116 1-188 isoform P01116-2): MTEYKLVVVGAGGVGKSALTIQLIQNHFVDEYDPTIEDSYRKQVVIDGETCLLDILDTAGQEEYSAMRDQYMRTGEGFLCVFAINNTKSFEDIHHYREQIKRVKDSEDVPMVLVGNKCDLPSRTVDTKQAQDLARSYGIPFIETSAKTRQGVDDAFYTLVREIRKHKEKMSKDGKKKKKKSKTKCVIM
Sequence of K-ras G12V (P01116 1-188 isoform P01116-2 G12V): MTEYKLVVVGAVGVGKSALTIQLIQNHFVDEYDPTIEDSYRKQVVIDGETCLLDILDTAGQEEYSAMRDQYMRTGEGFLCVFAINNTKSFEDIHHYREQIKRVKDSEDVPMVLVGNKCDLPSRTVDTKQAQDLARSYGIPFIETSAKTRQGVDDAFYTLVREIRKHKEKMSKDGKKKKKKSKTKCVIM

Q: Which IC50 (K-ras G12V; Table 1, G-LISA, 293H transfected, read-out: IC50 (μM) G12V) does the source give for `Cc1nc(C)c(C(=O)Nc2nc(-c3ccc4[nH]c(=O)[nH]c4c3)cs2)s1` [Compound 4562] here?
A: Its IC50 is 38 µM.

Q: And the IC50 (K-ras G12V; Table 5, IC50, 293H transfected, read-out: G-LISA (G12V))?
A: Its IC50 is 38 µM.

Q: And the IC50 (K-Ras wild-type; Table 1, G-LISA, 293H transfected, read-out: IC50 (μM) Wild-type)?
A: Its IC50 is 0.5 µM.

Q: What about the IC50 (K-Ras wild-type; Table 5, IC50, 293H transfected, read-out: G-LISA (wild type)) of the same molecule?
A: Its IC50 is 0.5 µM.

Q: And the “In-cell selectivity among K-ras forms, G-LISA (FIG. 1)” value (K-ras G12D; 293H transfected with wild-type, G12C, G12D or G12V, 3.125-50 μM, 1 hour)?
A: Its value is “pronounced selectivity towards the G12D mutant form”.

Q: What about the “IC50 for G12D compared to the wild type, G-LISA (FIG. 1)” value (K-ras G12D; 293H transfected, 3.125-50 μM, 1 hour) of the same molecule?
A: The value was “lower IC50 as compared to the wild type”.

Q: What about the IC50 (K-ras G12D; Table 1, G-LISA, 293H transfected, read-out: IC50 (μM) G12D) of the same molecule?
A: Its IC50 is 10 µM.

Q: What about the IC50 (K-ras G12D; Table 5, IC50, 293H transfected, read-out: G-LISA (G12D)) of the same molecule?
A: The IC50 was 7 to 13 µM.

From patent US10487078B2, “Compositions and methods of targeting mutant K-RAS” (NantBio, Inc., priority 2015, dated 2019)
